Test results from a melting point compilation (Tetko et al.; mined from patent text by program, amines drawn as free bases though some values may be those of a salt).

| melting point [°C] | SMILES |
| --- | --- |
| 171 | CCOc1ccc2c(c1)n(-c1ccccn1)c(=O)n2S(=O)(=O)c1ccc(NC(=O)N(CC)CC)cc1OC |
| 148 to 150 | CC(=O)N1CCC(c2nn(-c3ccc(C(F)(F)F)cc3)c3ccccc23)CC1 |
| 50 | c1ccc(OCCSCc2nnc(-c3ccc(OCCCN4CCCCCC4)cc3)o2)cc1 |
| 244 | O=C1NC(=NCc2ccccc2)C(c2ccc(Br)cc2)N1c1ccc2[nH]cnc2c1 (centres undefined) |
| 169 to 170 | O=C(O)CCCCN(C(=O)c1ccc(Cl)cc1)c1cccc2ccccc12 |
| 118 to 121 | CCCc1nc(C(O)CCC)c(C(N)=O)n1Cc1ccc(-c2ccccc2C(=O)O)cc1 (centres undefined) |
| 166 to 168 | Nc1ccc(C(=O)N2Cc3cccn3Cc3ccccc32)cc1 |
| 139 to 140 | Cn1c(-c2ccc(Cl)cc2)cc2ncccc2c1=O |
| 66 to 67 | CC(C)c1ccccc1SC1=C(O)CC(CCc2ccccc2)(c2ccccc2)OC1=O (centres undefined) |
| 139 | CC(=O)Nc1ccc(C(=O)c2cc(-c3ccncc3)c(N3CCOCC3)s2)cc1 |
| 283 to 286 | O=C(O)C1Cc2c(ccc3c(=O)c4ccccc4oc23)O1 (centres undefined) |
| 136 to 137 | S=C=Nc1ccc(-c2nc(-c3ccco3)no2)cc1 |
| 169 to 172 | COc1ccccc1N(CN1C(=O)CN(C)C1=O)C(C)=O |
| 106 | O=C(NCc1ccccc1)n1c(=O)sc2c(Cl)cccc21 |
| 144 to 145 | CCSc1ccc(-c2coc3ccc(-c4nnc(C)o4)cc23)cc1 |
| 196 to 199 | O=C(CNc1ccc2[nH]c(=O)sc2c1)N1CCC(Cc2ccccc2)CC1 |
| 206 | BrC(c1ccccc1)(c1ccccc1)C1(c2ccccc2)OCCO1 |
| 203 to 205 | Cc1nn(-c2ccccn2)c2nc3ccccc3c(N3CCOCC3)c12 |
| 95.5 to 97 | CCCCc1ncc(C=O)n1Cc1ccc(C(=O)OC)c2ccccc12 |
| 70 to 72 | COc1ccccc1-c1ccc(C)cc1 |

| melting point [°C] | SMILES |
| --- | --- |
| 186 to 187 | Cc1c(NC(=O)CC(C)(C)C)cc2c(c1C)OC(C)(C)C2Cc1ccccc1 (centres undefined) |
| 201 to 202 | Cc1cccc(C)c1NC(=O)NCC1(c2ccccc2)CCCC1 |
| 100 to 101 | COc1ccc(CCc2oc3ccc(Br)cc3c2C(C)=O)cc1 |
| 213 to 215 | CC1(C)C=C(c2cc(C#N)ccc2O)c2cc(C#N)ccc2O1 |
| 224 to 225 | O=[N+]([O-])c1cc(-c2cccc3ccccc23)c2nc(Cl)ccc2c1 |
| 62 to 64 | CCOC(=O)C(C)(C)OCc1cc2cc(C(F)(F)F)ccc2n1S(=O)(=O)c1ccccc1 |
| 87 to 89 | COc1ccc(C2=NN(Cc3ccncc3)C(=O)[C@H]3CCCC[C@@H]23)cc1OC (relative stereo) |
| 106 to 108 | COc1cc2cc(C)c(CO)c(-c3ccnc(Br)c3)c2cc1OC |
| 105 to 108 | COc1cc(C(=O)NCCc2cccc(C)c2)cc(OC)c1OC |
| 144 to 146 | CCCCc1c(/C=C/C(=O)Oc2ccc([N+](=O)[O-])cc2)cc(OC)c2ccc(OC)cc12 |
| 145 to 147 | CSc1ccc(C(=N)Nc2ccc(F)cc2)cc1 |
| 178 to 181 | Cn1c2c(c3ccc(-n4ccc(OCc5ccccc5)cc4=O)cc31)CNCCC2 |
| 175 to 176 | O=C(c1ccc(C2CCCCC2)cc1)N1Cc2ccccc2Nc2ccccc21 |
| 170 to 172 | COc1cc(/C=C/C(=O)CC(=O)c2ccc(O)c(OC)c2)ccc1O |
| 157 to 159 | COc1ccc(S(=O)(=O)Nc2nc(-c3cccc([N+](=O)[O-])c3)cs2)cc1 |
| 178 to 179 | Cc1ccc(O)c(NCCCN2CCN(C(c3ccccc3)c3ccccc3)CC2)c1 |
| 91 to 93 | O=C(NCCc1ccc(Cl)cc1)c1ncccc1O |
| 147 to 149 | Cc1nc2c(s1)CN=C(c1ccccc1F)c1cc(Cl)ccc1-2 |
| 172 to 175 | Cc1ccc(-c2nnn(C(c3ccccc3)(c3ccccc3)c3ccccc3)n2)cc1 |

Second part, the compound before the results:

| SMILES | melting point [°C] |
| --- | --- |
| O=c1n(-c2ccc(C(F)(F)F)cc2)c(=O)n2n1CC(c1ccccc1)C2c1ccc(Cl)cc1 (centres undefined) | 148 to 150 |
| O=C(c1ccc(F)cc1)N1CCN(S(=O)(=O)c2ccc(Nc3ccnc4cc(Cl)ccc34)cc2)CC1 | 235 to 237 |
| COc1ccc(CSCC2NC(=O)C2NC(=O)OC(C)(C)C)cc1 (centres undefined) | 120 to 123 |
| O=C(Nc1ccc(OCCN2CCOCC2)c2ccccc12)c1cccc(N2CCOCC2)c1 | 90 to 92 |
| COc1cc(C)c2c(Oc3cccc(C(F)(F)F)c3)c(OC)cc(NC(C)CCC[N+](=O)[O-])c2n1 (centres undefined) | 84.8 to 85.1 |
| COc1c(CC(=O)O)c2c(c3c1OC(C)(C)C3)C(c1ccccc1)=NC(C)(C)C2 | 225 to 245 |
| Cc1cc(C)c(Nc2nc(C)ncc2S(=O)(=O)c2ccc(-n3ccnc3)cc2)c(C)c1 | 230 to 232 |
| Cc1cc2nc(Cl)c3cnc(Cl)cc3n2n1 | 203 |
| Cc1cc(C=O)ccc1C(=O)NCC(F)(F)F | 99 to 104 |
| CC(C)N(C)c1nccc(Oc2ccc(NC(=O)c3cc(F)cc(N4CCCCC4)c3)c3ccccc23)n1 | 102 to 104 |
| CC(=O)OCC1SC(Oc2cc(C)cc(O)c2C(C)=O)C(OC(C)=O)C(OC(C)=O)C1OC(C)=O (centres undefined) | 162 to 164 |
| C=CCOc1ccc(Cl)cc1C(=O)OC | 25 to 26 |
| ClC(Cl)(Cl)c1nc(NCc2ccccc2)nc(C(Cl)(Cl)Cl)n1 | 96.5 to 97 |
| COc1ccc2c(c1)SC(C#N)=C(N)CO2 | 203 to 205 |
| Cc1cccc(NC(=O)NCC(=O)N(c2ccccc2)C(C(=O)OC(C)(C)C)C(=O)OC(C)(C)C)c1 | 175 |
| CC(Cl)(Cl)C(NC(=O)c1cccc(Cl)c1)NC(=NC#N)Nc1ccc(C(F)(F)F)nc1 (centres undefined) | 191 to 192 |
| O=[N+]([O-])c1c(Nc2ccon2)cnc2c1COCC2 | 143 to 145 |
| N#Cc1cccc(CCN2CCN(Cc3ccc(Cl)nc3)C2=N[N+](=O)[O-])c1 | 204 to 206 |
| CCC(Oc1ccccc1Cl)C(=O)OC1CC(O)C=C2C=CC(C)C(CCC3CC(O)CC(=O)O3)C21 (mixture of isomers) | 145 to 147 |
| CCCCC(=O)Oc1cccc(NC(=O)CC(C)=O)c1 | 65 |

| SMILES | melting point [°C] |
| --- | --- |
| CCOCCn1c(CCl)nc2ccccc21 | 75.5 to 77 |
| CN(C)CCCn1c2c(c3cc(C(=O)O)ccc31)CCCCCC2 | 149 to 150 |
| CS(=O)(=O)Nc1cc2occc(=O)c2cc1Oc1ccc(F)cc1F | 182 to 183 |
| CCC12CCC3C4CCC(=O)C=C4CCC3C1CCC2OC (centres undefined) | 117 to 119 |
| CCCC[C@H](NC(=O)[C@H](CCCC)NC(=O)OCc1ccccc1)C(=O)CSCc1ccco1 | 95 to 97 |
| Cc1cc2c(cc1Cl)N(C(=O)CN1CCN(c3ccccc3)CC1)c1ccccc1N(C)S2(=O)=O | 194 to 196 |
| O=C(O)Cc1sccc1NC(=O)C(=O)NC(=O)c1ccco1 | 169 |
| Cc1cc(O)c([N+](=O)[O-])cc1C(=O)c1c(Cl)cccc1Cl | 170 |
| CCOC(=O)c1cc2c(O)c(C(=O)OCC)n(C)c2nc1C(=O)OCC | 129 to 130 |
| CCCCCCCCCCCCCCCCCC(=O)N[C@@H](C)C(=O)O | 102 |
| CCC1(CC)CSSC[C@@H](C(=O)O)NC1=O | 127 to 128 |
| CCCc1nn(C)c2c(=O)n(CCOc3ccc(OC(C)(C)C(=O)O)cc3)c(CC)nc12 | 108 to 110 |
| O=C1Nc2cccc(I)c2/C1=C/c1ccc[nH]1 | 256 to 258 |
| CCCCCCCS(=O)(=O)c1ccc(N)cc1 | 91 to 92 |
| COCCc1nc2c(N)nc3c(c2n1CCCNS(C)(=O)=O)CCCC3 | 150 to 152 |
| CC(CCC(=O)C(C)(C)O)C1CCC2C3CC(O)C4CC(O)CCC4(C)C3CCC12C (centres undefined) | 189 to 191 |
| Cc1cc(C#N)cc(Oc2[nH]c(=O)[nH]c(=O)c2C(C)C)c1 | 272 to 275 |
| Cc1nc(-c2c(F)cccc2Cl)nn1-c1ccc(COc2ncc(C(F)(F)F)cc2Cl)cc1 | 96 to 97 |
| COc1c(C(O)CNC(C)(C)Cc2ccccc2C)ccc(O)c1O (centres undefined) | 114 |
| CCOc1ccnc(F)c1 | 35 to 36 |

| SMILES | melting point [°C] |
| --- | --- |
| O=C(CNC1CCCCC1)Nc1ccc([N+](=O)[O-])cc1 | 123 to 125 |
| CC(C)CCCC(C)C1CC=C2C3=C(CCC21C)C1(C)CC=CCC1CC3 (centres undefined) | 105 |
| Cc1nc(N2CCN(Cc3ccccc3)CC2)ncc1C(N)=O | 195 to 196 |
| Cc1c(C)c2c(c(C)c1N)CC(C)(CN1CCC(CCc3ccccc3)CC1)O2 (centres undefined) | 91 to 92 |
| COC(=O)c1ccc(C#CCCO)cc1 | 95.5 to 96 |
| COc1cc([N+](=O)[O-])c(CO)c(OC)c1OC | 69 to 70 |
| CC(C)(C)c1cc(CCc2ccccc2NC(=O)NC2CCCCCC2)cc(C(C)(C)C)c1O | 177 to 178 |
| Cc1nn(-c2ccccn2)c2nc3cc(F)c(F)cc3c(Cl)c12 | 175 to 176 |
| N#Cc1ccccc1N1CCN(CNC(=O)c2ccccc2)CC1 | 148 to 150 |
| O=[N+]([O-])c1ccc(OCC#CC#CCOc2ccc([N+](=O)[O-])cc2[N+](=O)[O-])cc1 | 125 |
| CC#CCOc1ccc(S(=O)(=O)C2(C(=O)O)CCN(Cc3ccc(OCCN4CCCCC4)cc3)CC2)cc1 | 172 |
| O=[N+]([O-])c1cnc2c(F)c(Cl)c(F)cc2c1 | 174 |
| Cc1nc(NC(=O)NS(=O)(=O)c2cccc3c2nnn3C)nc2c1CCO2 | 234 to 240 |
| NNc1ccc(Cl)cn1 | 116 to 122 |
| O=C(O)c1cnc2occc2c1 | 274 to 275 |
| O=C(Nc1ccccn1)c1c(C(F)(F)F)nc(-c2ccccc2)c(-c2ccccc2)c1O | 208 to 210 |
| CC(C)CC(C=CCC(N)=O)NC(=O)C1CCCN1C(=O)OCc1ccccc1 (centres undefined) | 140 to 142 |
| O=S1(=O)NCN(CCF)c2cc(F)ccc21 | 107 to 109 |
| N#CC1=CC(Br)=NC1(N)C#N (centres undefined) | > 210 |
| C=C(C)C(=O)Oc1ccc(S(=O)(=O)NCCCC)cc1 | 59 to 60 |
